# Measurements from patent publication US20240010658A1, “ABHD6 ANTAGONIST” (ONO PHARMACEUTICAL CO., LTD., priority 2021, published 2024).
# What was measured:
# [1] = biological target: recombinant human ABHD6 (33-337) (Homo sapiens (Human), UniProt Q9BV23); assay: Evaluation of ABHD6 enzyme inhibitory activity (arachidonic acid production from 1-arachidonoyl glycerol, RapidFire-MS); assay type: biochemical; conditions: inhibition of arachidonic acid production, 10 μmol/L 1-arachidonoyl glycerol, 1 hour, room temperature
# Protocol: The recombinant human ABHD6 (33-337) was a GST-tagged ABHD6, and one which was expressed in E. coli, then purified with a Glutathione-Sepharose 4B resin, and then concentrated was used. The enzyme reaction was carried out at room temperature using a 384-well microplate made of polypropylene, and wells to which no enzyme was added were designated as a blank group.
# One hour after the start of the enzyme reaction, methanol containing, as an internal standard substance, arachidonic acid-d8 (Cayman Chemical) and 1% formic acid was added to stop enzymatic reaction. The upper part of the enzyme reaction plate was sealed with aluminum, and centrifugation was performed at 560 g for 5 minutes at room temperature. Then, arachidonic acid as an enzyme reaction product and arachidonic acid-ds as the internal standard substance were quantified with RapidFire (registered trademark)-Mass Spectrometry system.
# [2] = biological target: human ABHD6 (Homo sapiens (Human), UniProt Q9BV23); assay: Measurement of binding affinity for human ABHD6 (BRET, HEK293 cells expressing NanoLuc-human ABHD6 fusion protein); conditions: BRET competition with fluorescent probe molecule 100 nmol/L in HEK293 cells expressing NanoLuc-human ABHD6
# Protocol: The binding affinity of the test compound for human ABHD6 was measured using bioluminescence resonance energy transfer (hereinafter, abbreviated as BRET) as an index. The bioluminescence resonance energy transfer is induced by the proximity of a probe molecule and a NanoLuc-human ABHD6 fusion protein, which is caused by allowing a fluorescent probe molecule and a test compound to act in a competitive manner using HEK293 cells forcibly expressing the NanoLuc-human ABHD6 fusion protein.
# The test compound and the compound described in Example 2 as a control substance were each dissolved in dimethyl sulfoxide (DMSO) to prepare a 10 mmol/L solution. The prepared 10 mmol/L solution was thawed at the time of use, serially diluted with DMSO, and subjected to an experiment.
# HEK293 cells expressing a NanoLuc-human ABHD6 fusion protein were statically cultured at 37° C. in the presence of 5% CO2 using inactivated (56° C., 30 min) 9.8 vol % non-dialyzed-FBS (containing 0.5 vol % GENETICIN and 1% penicillin-streptomycin). The subculture was performed by the following method.
# The culture medium was removed, and the cells were washed once with phosphate buffered saline without Ca^2+ and Mg^2+. An appropriate amount of trypsin-EDTA was added, and the cells were incubated at room temperature. After the cells were detached, a culture medium in a volume 10-fold the volume of trypsin-EDTA (0.05%) was added to stop an enzyme reaction. The cells were collected in a centrifuge tube, and centrifuged at room temperature for 3 minutes at 120 g, and the supernatant was removed. The cells were suspended in an appropriate amount of culture medium and seeded in a culture flask.
# HEK293 cells expressing a NanoLuc-human ABHD6 fusion protein were prepared, and then cryopreserved so as to be 5.0×10^6 cells/mL/vial in CELLBANKER2, and the cells were subjected to an experiment. HBSS (+) containing 20 mmol/L HEPES (pH 7.3) and 0.1% BSA was prepared and used as an assay buffer. The cells were thawed and suspended in the assay buffer to prepare a cell suspension of 2×10^5 cells/mL. […] The plate was allowed to stand at 37° C. for 30 minutes in the presence of 5% CO2. Then, a probe molecule (10 mmol/L in DMSO) having a fluorophore was diluted with the assay buffer so as to have a final concentration of 100 nmol/L, and added to the assay plate in an amount of 15 μL each. Further, this was allowed to stand at 37° C. for 30 minutes in the presence of 5% CO2. Then, a Nano-Glo (registered trademark) Vivazine (trademark) substrate (Promega Corporation) was diluted with the assay buffer according to the method described in the protocol, and added to the assay plate in an amount of 10 μL each, and this was allowed to stand at room temperature for 1 hour. Thereafter, the luminescence and fluorescence intensity were measured using a GloMax (registered trademark) discover system. The ratio between the emission intensity through the 450 nm bandpass filter and the fluorescence intensity through the 600 nm longpass filter was defined as the measured value of each sample. The measured value of the group containing the control substance at a final concentration of 30 μmol/L was defined as 100% inhibition. The measured value of the group not containing the compound was defined as 0% inhibition. The IC50 value of the test compound was determined from the measured value at each test compound concentration.
# recombinant human ABHD6 (33-337), sequence (Q9BV23 33-337): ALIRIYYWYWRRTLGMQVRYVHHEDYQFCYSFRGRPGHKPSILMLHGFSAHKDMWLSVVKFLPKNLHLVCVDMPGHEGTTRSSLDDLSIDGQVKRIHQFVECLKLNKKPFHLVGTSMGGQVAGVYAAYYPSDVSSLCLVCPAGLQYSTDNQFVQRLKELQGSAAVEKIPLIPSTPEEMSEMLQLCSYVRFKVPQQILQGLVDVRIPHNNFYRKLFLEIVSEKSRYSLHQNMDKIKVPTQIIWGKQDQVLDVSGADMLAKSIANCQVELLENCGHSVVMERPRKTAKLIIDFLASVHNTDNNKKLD
# human ABHD6, sequence (Q9BV23 whole entry, the tested form may be a part): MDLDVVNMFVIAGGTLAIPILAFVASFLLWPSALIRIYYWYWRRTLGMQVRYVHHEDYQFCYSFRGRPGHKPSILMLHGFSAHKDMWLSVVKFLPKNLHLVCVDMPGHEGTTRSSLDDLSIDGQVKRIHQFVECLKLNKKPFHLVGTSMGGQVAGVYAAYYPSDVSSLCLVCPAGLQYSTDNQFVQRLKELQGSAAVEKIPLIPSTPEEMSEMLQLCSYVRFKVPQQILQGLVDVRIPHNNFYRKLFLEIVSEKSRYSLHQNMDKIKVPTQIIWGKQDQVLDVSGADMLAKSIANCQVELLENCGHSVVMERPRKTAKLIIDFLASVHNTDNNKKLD
SMILES,IC50 [1] [nM],IC50 [2] [nM]
"Cc1ccc(C(=O)N2C[C@@H]3CC[C@@H](Nc4nnc(Cl)cc4C#N)[C@@H]3C2)s1 (relative stereo) [Example 9, rel-6-Chloro-3-({(3aS,4R,6aR)-2-[(5-methyl-2-thienyl)carbonyl]octahydrocyclopenta[c]pyrrol-4-yl}amino)-4-pyridazinecarbonitrile]",2,8
"Cc1ccc(C(=O)N2C[C@@H]3CC[C@@H](n4ccc5cc(Cl)nnc54)[C@@H]3C2)s1 (racemic) [Example 8-1, rel-[(3aS,4R,6aR)-4-(3-Chloro-7H-pyrrolo[2,3-c]pyridazin-7-yl)hexahydrocyclopenta[c]pyrrol-2(1H)-yl](5-methyl-2-thienyl)methanone]",1,5
"O=C(c1cc2c(s1)CCOC2)N1C[C@H]2[C@H](Nc3ccc(Br)nn3)CC(F)(F)[C@H]2C1 [Example 16, [(3aR,6R,6aS)-6-[(6-Bromo-3-pyridazinyl)amino]-4,4-difluorohexahydrocyclopenta[c]pyrrol-2(1H)-yl](6,7-dihydro-4H-thieno[3,2-c]pyran-2-yl)methanone]",1,4
"Cc1ccc(C(=O)N2C[C@@H]3CC[C@@H](Nc4ccc(Br)nn4)[C@]3(F)C2)s1 [Example 10, [(3aR,4R,6aS)-4-[(6-Bromopyridazin-3-yl)amino]-3a-fluoro-1.3.4.5.6.6a-hexahydrocyclopenta[c]pyrrol-2-yl]-(5-methyl-2-thienyl)methanone]",< 1,2
"Cc1ccc(C(=O)N2C[C@@H]3CC[C@@H](Nc4ccc(I)nn4)[C@@H]3C2)s1 [Example 5, [(3aS,4R,6aR)-4-[(6-Iodo-3-pyridazinyl)amino]hexahydrocyclopenta[c]pyrrol-2(1H)-yl](5-methyl-2-thienyl)methanone]",1,3
"O=C(c1cc2nn(C3CC3)cc2s1)N1C[C@@H]2CC[C@@H](Nc3ccc(Br)nn3)[C@@H]2C1 [Example 3-10, [(3aS,4R,6aR)-4-[(6-Bromo-3-pyridazinyl)amino]hexahydrocyclopenta[c]pyrrol-2(1H)-yl](2-cyclopropyl-2H-thieno[3,2-c]pyrazol-5-yl)methanone]",1,2
"Cn1cc2sc(C(=O)N3C[C@@H]4CC[C@@H](Nc5ccc(Br)nn5)[C@@H]4C3)cc2n1 [Example 3-9, [(3aS,4R,6aR)-4-[(6-Bromo-3-pyridazinyl)amino]hexahydrocyclopenta[c]pyrrol-2(1H)-yl](2-methyl-2H-thieno[3,2-c]pyrazol-5-yl)methanone]",1,5
"O=C(C1CC2CCC1CC2)N1C[C@@H]2CC[C@@H](Nc3ccc(Br)nn3)[C@@H]2C1 (stereo partly drawn) [Example 2-14, Bicyclo[2.2.2]oct-2-yl[(3aS,4R,6aR)-4-[(6-bromo-3-pyridazinyl)amino]hexahydrocyclopenta[c]pyrrol-2(1H)-yl]methanone]",2,16
"Cc1ccc(C(=O)N2C[C@@H]3CC[C@@H](Nc4ccc(Br)nn4)[C@@H]3C2)s1 [Example 2, [(3aS,4R,6aR)-4-[(6-Bromo-3-pyridazinyl)amino]hexahydrocyclopenta[c]pyrrol-2(1H)-yl](5-methyl-2-thienyl)methanone]",< 1,1
"O=C(c1cc2c(s1)CCOC2)N1C[C@@H]2CC[C@@H](Nc3ccc(Br)nn3)[C@@H]2C1 [Example 2-1, [(3aS,4R,6aR)-4-[(6-Bromo-3-pyridazinyl)amino]hexahydrocyclopenta[c]pyrrol-2(1H)-yl](6,7-dihydro-4H-thieno[3,2-c]pyran-2-yl)methanone]",1,3
"O=C(c1cc2c(s1)CCOC2)N1C[C@@H]2CC[C@@H](Nc3ccc(Cl)nn3)[C@]2(F)C1 [Example 12, {(3aR,4R,6aS)-4-[(6-Chloro-3-pyridazinyl)amino]-3a-fluorohexahydrocyclopenta[c]pyrrol-2(1H)-yl}(6,7-dihydro-4H-thieno[3,2-c]pyran-2-yl)methanone]",1,1
"O=C(c1cc2c(s1)CCOC2)N1C[C@@H]2CC[C@@H](Nc3ccc(Cl)nn3)[C@@H]2C1 [Example 1-4, [(3aS,4R,6aR)-4-[(6-Chloro-3-pyridazinyl)amino]hexahydrocyclopenta[c]pyrrol-2(1H)-yl](6,7-dihydro-4H-thieno[3,2-c]pyran-2-yl)methanone]",1,2
"O=C(c1cc2nn3c(c2s1)CCC3)N1C[C@@H]2CC[C@@H](Nc3ccc(Br)nn3)[C@@H]2C1 [Example 3-6, [(3aS,4R,6aR)-4-[(6-Bromo-3-pyridazinyl)amino]hexahydrocyclopenta[c]pyrrol-2(1H)-yl](7,8-dihydro-6H-pyrrolo[1,2-b]thieno[2,3-d]pyrazol-2-yl)methanone]",2,6
"Cc1ccc(C(=O)N2C[C@@H]3CC[C@@H](Nc4ccc(Cl)nn4)[C@@H]3C2)s1 [Example 1-2, {(3aS,4R,6aR)-4-[(6-Chloro-3-pyridazinyl)amino]hexahydrocyclopenta[c]pyrrol-2(1H)-yl}(5-methyl-2-thienyl)methanone]",1,5
"O=C(c1cc2c(s1)CCOC2)N1C[C@@H]2CC3(CC3)[C@@H](Nc3ccc(Br)nn3)[C@@H]2C1 [Example 15, [(3aS, 4S, 6aR)-4-[(6-Bromopyridazin-3-yl)amino]spiro[1,3,3a,4,6,6a-hexahydrocyclopenta[c]pyrrole-5,1′-cyclopropan]-2-yl]-(6,7-dihydro-4H-thieno[3,2-c]pyran-2-yl)methanone]",1,1
"Cc1ccc(C(=O)N2C[C@@H]3CC[C@@H](N(Cc4ccccc4)c4ccc(Br)nn4)[C@@H]3C2)s1 [Example 6-2, [(3aS,4R,6aR)-4-[Benzyl(6-bromo-3-pyridazinyl)amino]hexahydrocyclopenta[c]pyrrol-2(1H)-yl](5-methyl-2-thienyl)methanone]",1,1
"O=C(c1ccc(C(F)F)s1)N1C[C@@H]2CC[C@@H](Nc3ccc(Cl)nn3)[C@@H]2C1 [Example 1, {(3aS,4R,6aR)-4-[(6-Chloro-3-pyridazinyl)amino]hexahydrocyclopenta[c]pyrrol-2(1H)-yl}[5-(difluoromethyl)-2-thienyl]methanone]",1,11
"CN(C)c1ncc(C(=O)N2C[C@@H]3CC[C@@H](Nc4ccc(Br)nn4)[C@@H]3C2)s1 [Example 2-6, [(3aS,4R,6aR)-4-[(6-Bromo-3-pyridazinyl)amino]hexahydrocyclopenta[c]pyrrol-2(1H)-yl][2-(dimethylamino)-1,3-thiazol-5-yl]methanone]",,25
"CN1C(=O)CCc2sc(C(=O)N3C[C@@H]4CC[C@@H](Nc5ccc(Br)nn5)[C@@H]4C3)cc21 [Example 3, 2-{[(3aS,4R,6aR)-4-[(6-Bromo-3-pyridazinyl)amino]hexahydrocyclopenta[c]pyrrol-2(1H)-yl]carbonyl}-4-methyl-6,7-dihydrothieno[3,2-b]pyridin-5(4H)-one]",5,62
